Reference: the supplement of paper PMC10307832

Experiments:
Assay in all cases: relative viability (nuclei count vs DMSO), 5 days (fraction); higher = more cells survive
ABC-1 = system: ABC-1
Method in brief: (§1)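 Lung cancer cell lines were pin-tool dosed in 1536-well plates on the day after seeding, with either a lone drug or a fixed anchor-drug dose plus five library-drug doses (not always all listed) in √10 steps. Nuclei were counted on 4× images after 5 days. Relative viability is the ratio of treated-well to vehicle-well nuclei counts, with each value a median of duplicate plates.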

BEN = system: BEN
Method in brief: as §1

EPLC-272H = system: EPLC-272H
Method in brief: as §1

HCC-827 = system: HCC-827
Method in brief: as §1

HOP-62 = system: HOP-62
Method in brief: as §1

LU99A = system: LU99A
Method in brief: as §1

NCI-H1355 = system: NCI-H1355
Method in brief: as §1

NCI-H1666 = system: NCI-H1666
Method in brief: as §1

NCI-H1792 = system: NCI-H1792
Method in brief: as §1

NCI-H1975 = system: NCI-H1975
Method in brief: as §1

NCI-H2170 = system: NCI-H2170
Method in brief: as §1

NCI-H23 = system: NCI-H23
Method in brief: as §1

NCI-H2405 = system: NCI-H2405
Method in brief: as §1

NCI-H3122 = system: NCI-H3122
Method in brief: as §1

NCI-H322M = system: NCI-H322M
Method in brief: as §1

NCI-H358 = system: NCI-H358
Method in brief: as §1

NCI-H520 = system: NCI-H520
Method in brief: as §1

NCI-H596 = system: NCI-H596
Method in brief: as §1

NCI-H647 = system: NCI-H647
Method in brief: as §1

NCI-H727 = system: NCI-H727
Method in brief: as §1

NCI-H838 = system: NCI-H838
Method in brief: as §1

PC-14 = system: PC-14
Method in brief: as §1

UMC-11 = system: UMC-11
Method in brief: as §1

In the case of `O=c1[nH]c2ccccc2n1C1CCN(CCCC(c2ccc(F)cc2)c2ccc(F)cc2)CC1` [Pimozide] + C[C@@H](Oc1cc(-c2cnn(C3CCNCC3)c2)cnc1N)c1c(Cl)ccc(F)c1Cl [Crizotinib] (partner 1 µM), the relative viability (ABC-1; first compound 0.08 µM) is reported as 1.03, the relative viability (ABC-1; first compound 0.253 µM) is reported as 0.604 and the relative viability (ABC-1; first compound 0.8 µM) is reported as 0.783. For the same compound, the relative viability (ABC-1; first compound 2.53 µM) was 0.755, the relative viability (ABC-1; first compound 8 µM) was 0.606 and the relative viability (BEN; first compound 0.08 µM) was 1.01. It also gave a relative viability (BEN; first compound 0.253 µM) of 0.913, a relative viability (BEN; first compound 0.8 µM) of 0.846 and a relative viability (BEN; first compound 2.53 µM) of 0.697. It also gave a relative viability (BEN; first compound 8 µM) of 0.969, a relative viability (EPLC-272H; first compound 0.08 µM) of 0.789 and a relative viability (EPLC-272H; first compound 0.253 µM) of 0.686. For the same compound, the relative viability (EPLC-272H; first compound 0.8 µM) was 0.908, the relative viability (EPLC-272H; first compound 2.53 µM) was 0.904 and the relative viability (EPLC-272H; first compound 8 µM) was 0.803. It also gave a relative viability (HCC-827; first compound 0.253 µM) of 0.887, a relative viability (HCC-827; first compound 0.8 µM) of 0.826 and a relative viability (HCC-827; first compound 2.53 µM) of 0.936. It also gave a relative viability (HCC-827; first compound 8 µM) of 0.885, a relative viability (HOP-62; first compound 0.08 µM) of 1.03 and a relative viability (HOP-62; first compound 0.253 µM) of 0.859. The relative viability (HOP-62; first compound 2.53 µM) was 0.819, the relative viability (HOP-62; first compound 8 µM) was 0.991 and the relative viability (LU99A; first compound 0.08 µM) was 0.497. The relative viability (LU99A; first compound 0.253 µM) was 0.521, the relative viability (LU99A; first compound 0.8 µM) was 0.548 and the relative viability (LU99A; first compound 2.53 µM) was 0.612. The relative viability (LU99A; first compound 8 µM) was 0.61, the relative viability (NCI-H1355; first compound 0.08 µM) was 1.08 and the relative viability (NCI-H1355; first compound 0.253 µM) was 0.988. It also gave a relative viability (NCI-H1355; first compound 0.8 µM) of 0.959, a relative viability (NCI-H1355; first compound 2.53 µM) of 0.937 and a relative viability (NCI-H1355; first compound 8 µM) of 1.06. For the same compound, the relative viability (NCI-H1666; first compound 0.08 µM) was 0.882, the relative viability (NCI-H1666; first compound 0.253 µM) was 0.913 and the relative viability (NCI-H1666; first compound 0.8 µM) was 1.02. It also gave a relative viability (NCI-H1666; first compound 2.53 µM) of 0.751, a relative viability (NCI-H1666; first compound 8 µM) of 0.789 and a relative viability (NCI-H1792; first compound 0.08 µM) of 0.95. For the same compound, the relative viability (NCI-H1792; first compound 0.253 µM) was 0.944, the relative viability (NCI-H1792; first compound 0.8 µM) was 0.937 and the relative viability (NCI-H1792; first compound 2.53 µM) was 0.937. The relative viability (NCI-H1792; first compound 8 µM) was 0.971, the relative viability (NCI-H1975; first compound 0.08 µM) was 0.919 and the relative viability (NCI-H1975; first compound 0.253 µM) was 1.02. The relative viability (NCI-H1975; first compound 0.8 µM) was 0.83, the relative viability (NCI-H1975; first compound 2.53 µM) was 0.882 and the relative viability (NCI-H1975; first compound 8 µM) was 0.73. For the same compound, the relative viability (NCI-H2170; first compound 0.08 µM) was 1.03, the relative viability (NCI-H2170; first compound 0.253 µM) was 1.14 and the relative viability (NCI-H2170; first compound 0.8 µM) was 1.06. It also gave a relative viability (NCI-H2170; first compound 2.53 µM) of 1.22, a relative viability (NCI-H2170; first compound 8 µM) of 1.07 and a relative viability (NCI-H23; first compound 0.08 µM) of 0.625. It also gave a relative viability (NCI-H23; first compound 0.253 µM) of 0.482, a relative viability (NCI-H23; first compound 0.8 µM) of 0.517 and a relative viability (NCI-H23; first compound 2.53 µM) of 0.573. It also gave a relative viability (NCI-H23; first compound 8 µM) of 0.524, a relative viability (NCI-H2405; first compound 0.08 µM) of 0.831 and a relative viability (NCI-H2405; first compound 0.253 µM) of 0.814. For the same compound, the relative viability (NCI-H2405; first compound 0.8 µM) was 0.83, the relative viability (NCI-H2405; first compound 2.53 µM) was 0.819 and the relative viability (NCI-H2405; first compound 8 µM) was 0.789. It also gave a relative viability (NCI-H3122; first compound 0.08 µM) of 0.27, a relative viability (NCI-H3122; first compound 0.253 µM) of 0.28 and a relative viability (NCI-H3122; first compound 0.8 µM) of 0.275. For the same compound, the relative viability (NCI-H3122; first compound 2.53 µM) was 0.301, the relative viability (NCI-H3122; first compound 8 µM) was 0.279 and the relative viability (NCI-H322M; first compound 0.253 µM) was 0.805. The relative viability (NCI-H322M; first compound 0.8 µM) was 0.846, the relative viability (NCI-H322M; first compound 2.53 µM) was 0.832 and the relative viability (NCI-H322M; first compound 8 µM) was 0.943. The relative viability (NCI-H358; first compound 0.08 µM) was 0.573, the relative viability (NCI-H358; first compound 0.253 µM) was 0.519 and the relative viability (NCI-H358; first compound 0.8 µM) was 0.448. It also gave a relative viability (NCI-H358; first compound 2.53 µM) of 0.335, a relative viability (NCI-H358; first compound 8 µM) of 0.546 and a relative viability (NCI-H520; first compound 0.08 µM) of 0.817. The relative viability (NCI-H520; first compound 0.253 µM) was 0.802, the relative viability (NCI-H520; first compound 0.8 µM) was 0.702 and the relative viability (NCI-H520; first compound 2.53 µM) was 0.819. It also gave a relative viability (NCI-H520; first compound 8 µM) of 0.675, a relative viability (NCI-H596; first compound 0.08 µM) of 0.943 and a relative viability (NCI-H596; first compound 0.253 µM) of 1.05. It also gave a relative viability (NCI-H596; first compound 0.8 µM) of 0.928, a relative viability (NCI-H596; first compound 2.53 µM) of 0.911 and a relative viability (NCI-H596; first compound 8 µM) of 0.831. For the same compound, the relative viability (NCI-H647; first compound 0.08 µM) was 1.03, the relative viability (NCI-H647; first compound 0.253 µM) was 1.04 and the relative viability (NCI-H647; first compound 0.8 µM) was 0.988. For the same compound, the relative viability (NCI-H647; first compound 2.53 µM) was 0.919, the relative viability (NCI-H647; first compound 8 µM) was 0.544 and the relative viability (NCI-H727; first compound 0.08 µM) was 0.958. It also gave a relative viability (NCI-H727; first compound 0.253 µM) of 0.791, a relative viability (NCI-H727; first compound 0.8 µM) of 0.855 and a relative viability (NCI-H727; first compound 2.53 µM) of 0.765. For the same compound, the relative viability (NCI-H727; first compound 8 µM) was 0.756, the relative viability (NCI-H838; first compound 0.08 µM) was 0.855 and the relative viability (NCI-H838; first compound 0.253 µM) was 0.808. It also gave a relative viability (NCI-H838; first compound 0.8 µM) of 0.786, a relative viability (NCI-H838; first compound 2.53 µM) of 0.774 and a relative viability (NCI-H838; first compound 8 µM) of 0.955. The relative viability (PC-14; first compound 0.253 µM) was 0.84, the relative viability (PC-14; first compound 0.8 µM) was 0.943 and the relative viability (PC-14; first compound 2.53 µM) was 0.934. For the same compound, the relative viability (PC-14; first compound 8 µM) was 0.978, the relative viability (UMC-11; first compound 0.08 µM) was 0.574 and the relative viability (UMC-11; first compound 0.253 µM) was 0.618. The relative viability (UMC-11; first compound 0.8 µM) was 0.634, the relative viability (UMC-11; first compound 2.53 µM) was 0.584 and the relative viability (UMC-11; first compound 8 µM) was 0.705.
